# Measurements as given in publication PMC4335872, “Pharmacokinetic-Pharmacodynamic Analysis of Spiroindolone Analogs and KAE609 in a Murine Malaria Model” (Antimicrobial Agents and Chemotherapy, 2015).
# Tests used:
# P. falciparum NF54 = experiment: In vitro [3H]hypoxanthine incorporation assay, P. falciparum NF54; format: cell-based, Plasmodium falciparum; settings: 16 h + 8 h incubation; read-out: IC50 (mean ± SD) for P. falciparum NF54 (n = 3)
# Experimental: Human erythrocytes served as the host cells. In vitro antimalarial activity was measured using the [^3H]hypoxanthine incorporation assay ([36]) with strain NF54 of P. falciparum (obtained from Hoffmann-LaRoche Ltd.). The compounds were dissolved in dimethyl sulfoxide (DMSO) at a concentration of 10 mM, diluted in hypoxanthine-free culture medium, and titrated in duplicate over a 64-fold range in 96-well plates. […] The parasites were harvested onto glass fiber filters, and radioactivity was measured using a BetaPlate liquid scintillation counter (Wallac, Zurich, Switzerland). All assays were repeated at least three times. The results were recorded and expressed as a percentage of the untreated controls. […] In addition, for the PK-PD analysis of KAE609, an IC99 value was determined by transforming the data from a scintillation counter (Anscombe transformation) to account for Poissonian measurement error. […] Each of the three replicates was performed on a distinct 96-well plate. This has been accounted for in the fitting procedure by means of a Bayesian hierarchical model. The software used for parameter inference was Stan ([37]).
# [1] = system: P. berghei GFP ANKA PbGFPCON; experiment: In vitro (ex vivo) P. berghei maturation assay; format: cell-based, Plasmodium berghei; settings: 16 h + 8 h incubation; read-out: IC50 (mean ± SD) for P. berghei GFP ANKA PbGFPCON (n = 3)
# Experimental: For the in vitro (ex vivo) P. berghei maturation assays ([38]), heparinized blood from infected mice (P. berghei GFP ANKA malaria strain PbGFPCON, a donation from A. P. Waters and C. J. Janse, Leiden University, Leiden, the Netherlands) ([39]) was washed with 9 ml of hypoxanthine-free culture medium and diluted with hypoxanthine-free culture medium and red blood cells (RBCs) from uninfected mice to a hematocrit of 5% and a parasitemia of 0.3%. Serial compound dilutions were prepared in DMSO and distributed as described above. The infected erythrocytes (0.3% final parasitemia and 2.5% final hematocrit) were added into the wells. After the plates were incubated for 16 h, 0.25 μCi of [^3H]hypoxanthine was added per well, and the plates were incubated for an additional 8 h. The parasites were harvested, and the in vitro (ex vivo) P. berghei IC50, IC90, and IC99 values were determined as described above.
# [2] = In vivo PK after single p.o. and i.v. dosing in CD-1 mice; set-up: species or system female CD-1 mice; settings: CD-1 mice
# Experimental: The Institutional Animal Care and Use Committee (IACUC) of the Novartis Institute for Tropical Diseases (NITD), registered with the Agri-Food and Veterinary authority (AVA), Government of Singapore, reviewed and approved all animal experimental protocols. […] The mice were allowed to acclimate before the initiation of the experiments. Feed and water were given ad libitum. […] The blood samples from the mice were collected at 0.02 (for i.v. only), 0.08, 0.25, 0.5, 1, 2, 4, 8, 16, and 24 h postdosing. The dose proportionality studies were conducted with KAE609. […] Additional samples were collected at 32 h and 48 h postdose for the 1- and 5-mg/kg dose groups and up to 72 h postdose for the 100-mg/kg dose group. Groups of three mice were used for each time point. Blood was centrifuged at 13,000 rpm for 7 min at 4°C, and plasma was harvested and stored at -20°C until analysis. […] After vortexing and centrifuging the mixture, the supernatant was removed and 5 μl of sample analyzed. Analyte quantitation was performed by high-performance liquid chromatography coupled with tandem mass spectrometry (LC-MS/MS). […] Instrument control and data acquisition were performed using the Applied Biosystems software Analyst 1.4.2. […] Multiple-reaction monitoring (MRM) was combined with optimized MS parameters to maximize detection specificity and sensitivity. The most intense MRM transitions [338.3/295.1 for (+)-1, 370.1/327.0 for (+)-2, 370.0/326.9 for (+)-3, 354.1/310.8 for (+)-4, 354.1/311.2 for (+)-5, 372.1/329.1 for (+)-6, 388.0/331.8 for (+)-7, 372.1/316.1 for (-)-6, and 388/332 for (-)-7] were used for quantitation. Most compounds were analyzed using electrospray ionization in the negative mode, except (+)-1, which was analyzed using positive mode. The recovery of the compounds from plasma was good and consistent across the concentration range studied. The lower limits of quantification for different compounds ranged from 1.3 to 70 ng/ml in plasma. A calibration curve was freshly prepared and analyzed with every set of study samples. Intraday variability was established with triplicate quality control samples at three concentration levels. The results were accepted if relative standard deviation was <15%. The mean values of the compound concentrations in plasma were obtained from three animals at each time point and plotted against time to generate concentration-time profiles. […] The oral bioavailability (F) was calculated as the ratio between the area under the concentration-time curve from 0 to infinity (AUC0-∞) following oral administration and the AUC0-∞ following intravenous administration corrected for dose (F = […].).
# [3] = system: P. berghei GFP ANKA malaria strain PbGFPCON; experiment: Dose-response efficacy in the P. berghei malaria mouse model; format: in vivo, female NMRI mice
# Description: All in vivo studies conducted at the Swiss Tropical and Public Health Institute (TPH) adhered to local and national regulations of laboratory animal welfare in Switzerland (permission no. 1731). For in vivo efficacy, female (specific-pathogen-free) […] (NMRI) mice were obtained from Janvier, Le Genest-Saint-Isle, France. Only mice without visible signs of disease were used for the study. Standard laboratory conditions were adopted for husbandry. In vivo antimalarial activity was assessed using groups of five female NMRI mice (20 to 22 g) intravenously infected on day zero with 2 × 10^7 erythrocytes parasitized with P. berghei GFP ANKA malaria strain PbGFPCON (a donation from A. P. Waters and C. J. Janse, Leiden University) ([39]). Untreated control mice typically died between day six and day seven postinfection. Experimental compounds were formulated in 10% ethanol, 30% PEG 400, and 60% of 10% vitamin E TPGS and were administered orally in a volume of 10 ml/kg. Dose-response efficacy studies were conducted for each spiroindolone analog. Doses of 2.5, 5, 10, 30, and 100 mg/kg were administered to groups of 5 mice each as a single dose at 24 h postinfection. Parasitemia, expressed as parasitized red blood cells (pRBCs) of >100 RBCs, was determined 72 h postinfection using standard flow cytometry techniques ([39]).
# Data analysis was done using nonlinear mixed-effect modeling (NONMEM version VI 2.0), which analyzed the PD data from multiple dose groups obtained simultaneously from different experiments. Within NONMEM, first-order conditional estimation (FOCE) was the method used ([40]). The log-transformed dose and level of parasitemia were used for analysis. For each compound, a dose-response model was built, and the ED90 (effective dose lowering 90% of parasitemia) values were determined using equation 1 ([41]), where P is the parasitemia measured at any given dose, Pmax is the maximum level of parasitemia, Pmin is the minimum level of parasitemia, EZ50 is the dose required to produce 50% of the maximal effect, s is the Hill slope describing the steepness of the curve, and x is the dose (in mg/kg). 1 P=Pmin +{[Pmax−Pmin]/[1+10^(logEZ50−log x)×s]}
# [4] = Parallel artificial membrane permeability assay (PAMPA); format: in vitro ADME; settings: % fraction absorbed
# Description: (§1) page 5: Running title: PreclinicalPK -PD of antimalarials 73 to high through put form at using in- house standard assa y protocols that are described in the 74 literature. 75 (a)HT-Equilibrium solubilit y at pH 6.8( 1); (b)Parallel Artificial Membrane P ermeability Assa y 76 expressed in % fraction absorbed (FA) ( 2,3 ); (c)Apparent permeability from apical to […] 78 tested; (d)intrinsic clearance in mouse liver micro somes ex pressed as µ L/ min/mg protein, in 79 the presen ce of liver enzym es ( 6); (e)Mous e plasm a protein binding using rapid equilibrium […] 81 82 83 84 85 86 87 88 89 90 91 92 93 94 95 96 97 98 5
# Caco-2 cells = experiment: Caco-2 permeability; format: in vitro ADME; settings: apical to basolateral
# Description: as §1
# [5] = Intrinsic clearance in mouse liver microsomes; format: in vitro ADME; settings: per mg protein
# Description: as §1
# [6] = Mouse plasma protein binding, rapid equilibrium dialysis; format: in vitro ADME
# Description: as §1
# [7] = sigmoid dose-response model, single oral doses 24 h postinfection, parasitemia 72 h postinfection
structure (smiles),measurement,setting,value
C[C@H]1Cc2c([nH]c3ccccc23)[C@@]2(N1)C(=O)Nc1ccc(Cl)cc12 [(+)-1],IC50,P. falciparum NF54,13 ± 2.2 nM
same,IC50,[1],242 ± 124 nM
same,CL,[2]; i.v. 5 mg/kg,49.7 mL/min/kg
same,Vss,[2]; i.v. 5 mg/kg,0.9 L/kg
same,t1/2 (i.v.),[2]; i.v. 5 mg/kg,24 min
same,F (oral bioavailability),[2]; oral 25 mg/kg vs i.v. 5 mg/kg,13%
same,AUC0–24,[2]; single oral dose 25 mg/kg,1300 ng·h/mL
same,Tmax,[2]; single oral dose 25 mg/kg,15 min
same,t1/2 (oral),[2]; single oral dose 25 mg/kg,42 min
same,Cmax,"[2]; single oral dose 25 mg/kg, plasma",1200 ng/mL
same,Hill slope,[3]; dose vs parasitemia model,−3.1
same,Pmax (maximum parasitemia),[3]; [7],33.11
same,Pmin (minimum parasitemia),[3]; [7],0.03
same,ED90 (effective dose causing a 90% reduction in parasitemia),"[3]; single oral dose 24 h postinfection, parasitemia 72 h postinfection",15.3 mg/kg
same,PAMPA %FA,[4],97%
same,Caco-2 Papp (A-B),Caco-2 cells,7.19 10-6 cm/sec
same,Hepatic CLint in mouse liver microsomes,[5],770 µL/min/mg
same,Mouse PPB,[6],98.4%
